Experiment: xn = mol fraction of the nth substance listed
Details: 101 kPa

CC[NH+](CC)CC.O=S(=O)([O-])O + CS(C)=O
Details	speed of sound, 298.15 K [m/s]	speed of sound, 303.15 K [m/s]	speed of sound, 308.15 K [m/s]	viscosity, 298.15 K [mPa·s]	viscosity, 303.15 K [mPa·s]	viscosity, 308.15 K [mPa·s]
x1 = 0.011	–	–	1468	–	–	2.8
x2 = 0	1874	1871	1866	235	153	138
x2 = 0.0244	–	1867	1863	–	148	134
x2 = 0.0557	1861	1859	1857	219	142	129
x2 = 0.108	1852	1850	1850	204	132	120
x2 = 0.1556	1838	1836	1830	190	123	112
x2 = 0.199	–	1820	1822	–	115	105
x2 = 0.2473	1812	1808	–	165	106	–
x2 = 0.3279	1786	1778	1778	144	92	85.4
x2 = 0.4004	1758	1748	–	125	79.3	–
x2 = 0.4964	1720	1708	1706	101	63.8	60.6
x2 = 0.5798	1684	1670	1666	81.1	51.1	49.2
x2 = 0.653	1652	–	1632	64.6	–	39.59
x2 = 0.7376	1614	1596	1590	46.7	29.42	29.13
x2 = 0.7812	1594	1576	1568	38.2	24.22	23.96
x2 = 0.8269	1574	1554	1546	29.63	19.13	18.72
x2 = 0.8772	1550	1530	1520	20.8	13.67	13.35
x2 = 0.9156	1534	1514	1502	14.31	9.78	9.41
x2 = 0.9539	–	1495	1484	–	6.27	5.84

CS(C)=O + CC[NH+](CC)CC.O=S(=O)([O-])O
x1 = 1
Details	speed of sound [m/s]	viscosity [mPa·s]
298.15 K	1496	1.99
303.15 K	1472	1.8
308.15 K	1460	1.65

Source: a compilation of properties of binary mixtures (doi:10.1016/j.tca.2013.02.002)
